Test results reported in patent US10471043B2, “Compounds and methods of treating bacterial infections” (ULTUPHARMA AB, priority 2015, dated 2019).
Values after ≈ are worked out from the molar mass of the structure shown. Where two headings read alike, the source gives them in different places.

Legend:
[1] = test system: Staphylococcus aureus strain LMG15975; experiment: MIC by broth micro-dilution, AM3/PBS 1:1; assay type: cell-based
Method: (§1) At first (Table 1), MIC is determined by broth micro-dilution method. The test medium is Antibiotic Medium 3 (AM3; Difco Ltd) mixed with Phosphate Buffered Saline (PBS) in proportions 1:1. Selected MIC values are verified using cation-adjusted Mueller Hinton Broth (MHB; BD). Cell concentration of tested pathogen is adjusted to between 3 and 5×10^5 cells per ml. To verify cell concentration of tested pathogen, viable cell counts are performed directly after each MIC-test by dilution method with PBS as a dilution solvent. Cells are counted on the agar plates with 50% strength Vegetable Peptone Broth (50% VPB; Oxoid Ltd) after 16 to 20 h of incubation at 37° C.
(§2) Cells of pathogen suspended in test medium are distributed to the wells and the plates are incubated for 16 to 20 h at 37° C. Negative controls are wells with the test medium only and positive controls are wells with the pathogen in test medium. The MIC is defined as the lowest concentration of each compound with no visible growth of pathogen.
Example compounds of formula I were examined for antibacterial activity against the Gram-positive bacterium Staphylococcus aureus strain LMG15975 using the above described method (Table 1).

in vitro = details: human, CC50 (μg/mL)
A. baumannii = experiment: MIC by broth micro-dilution; assay type: cell-based; details: Acinetobacter baumannii, A. baumannii (G−), Table 2; read-out: MIC (μg/ml) A. baumannii
Method: as §1, §2

[2] = Cytotoxicity assay, WST-8; details: human, HepG2 cells, CC50 (μg/mL), HepG2, 48 hours, Table 1
S. aureus = experiment: Antimicrobial Susceptibility Test by Broth Microdilution, M07-A9 CLSI; assay type: cell-based; details: Staphylococcus aureus
E. faecium = experiment: as above; assay type: cell-based; details: Enterococcus faecium; E. faecium 7, Vancomycin-resistant, Table 5; read-out: MIC
E. faecalis = experiment: as above; assay type: cell-based; details: Enterococcus faecalis
S. epidermidis = experiment: as above; assay type: cell-based; details: Staphylococcus epidermidis
Bacillus cereus = experiment: MIC by broth micro-dilution; assay type: cell-based; details: Table 4, read-out: MIC (μg/ml) B. cereus
Method: as §1, §2

[3] = test system: mupirocin-resistant strains of Staphylococcus aureus; experiment: MIC against mupirocin-resistant strains; assay type: cell-based; details: Staphylococcus aureus; all 4 strains (V55, V86, V308, V321); read-out: MIC values for mupirocin
Method: as §1, §2

[4] = LMG15975, S. aureus LMG15975, Table 1, read-out: MIC
[5] = LMG15975, S. aureus LMG15975, Table 1, read-out: MIC (μg/ml)
[6] = LMG15975, S. aureus (G+), Table 2, read-out: MIC (μg/ml) S. aureus

| Compound | MIC [1, 4] | MIC [1, 5] | CC50 at 48 h [2] | other results |
| --- | --- | --- | --- | --- |
| CCCCCCC/C=C/C1CC(O)=C(C(=O)CCC)C(=O)O1 (stereo not drawn) [Ex. 4, (E)-3-butyryl-6-(non-1-en-1-yl)-4-hydroxy-5,6-dihydro-2H-pyran-2-one] | 2.6 to 3.9 µM | 0.8 to 1.2 µg/mL | – | CC50 at 48 h (in vitro): 36 µM |
| COCCCCCCC1CC(O)=C(C(=O)CC2CCCC2)C(=O)O1 (stereo not drawn) [Ex. 23, 3-(2-cyclopentylacetyl)-4-hydroxy-6-(6-methoxyhexyl)-5,6-dihydro-2H-pyran-2-one] | 29 to 59 µM | 10 to 20 µg/mL | – | – |
| CCCCCCCCC1CC(O)=C(C(=O)CCC)C(=O)O1 (stereo not drawn) [Ex. 13, 3-butyryl-4-hydroxy-6-octyl-5,6-dihydro-2H-pyran-2-one] | 2.7 to 5.1 µM | 0.8 to 1.5 µg/mL | 30 µM | MIC [1, 6]: 0.8 to 1.5 µg/mL; MIC (A. baumannii): 24 to 32 µg/mL (≈ 81 to 108 µM) |
| CCCCCCCCCCCC1CC(O)=C(C(=O)CCC)C(=O)O1 (stereo not drawn) [Ex. 16, 3-butyryl-4-hydroxy-6-undecyl-5,6-dihydro-2H-pyran-2-one] | 0.3 to 0.6 µM | 0.1 to 0.2 µg/mL | – | MIC [1, 6]: 0.1 to 0.2 µg/mL; MIC ([1]; LMG15975, S. aureus LMG 15975 (SLU), Methicillin-resistant, Table 5, read-out: MIC (μg/mL)): 0.1 to 0.2 µg/mL; MIC (S. aureus; ATCC29213, S. aureus ATCC29213, QC strain, Table 5): 4 µg/mL (≈ 11.8 µM); MIC (S. aureus; S. aureus 7280, Methicillin-resistant): 8 µg/mL (≈ 23.6 µM); MIC (S. aureus; S. aureus MO17, Methicillin-sensitive, Table 5): 4 µg/mL (≈ 11.8 µM); MIC (S. aureus; S. aureus PICI, Methicillin-resistant, Table 5): 4 µg/mL (≈ 11.8 µM); MIC (E. faecium): 2 µg/mL (≈ 5.91 µM); MIC (E. faecalis; E. faecalis 14, Vancomycin-resistant): 1 µg/mL (≈ 2.95 µM); MIC (E. faecalis; E. faecalis 24, Vancomycin-sensitive, Table 5): 1 µg/mL (≈ 2.95 µM); MIC (A. baumannii): < 4 µg/mL; MIC (S. epidermidis; S. epidermis RO7, Methicillin-sensitive, Table 5): 0.5 µg/mL (≈ 1.48 µM); MIC (S. epidermidis; S. epidermis Staph 1, Methicillin-resistant): 0.5 µg/mL (≈ 1.48 µM); MIC (S. epidermidis; S. epidermis TA12, Methicillin-resistant, Table 5): 1 µg/mL (≈ 2.95 µM); CC50 at 48 h (in vitro): 19 µM |
| CCCCCCCCCC1CC(O)=C(C(=O)CC2CCOCC2)C(=O)O1 (stereo not drawn) [Ex. 26, 4-hydroxy-6-nonyl-3-(2-(tetrahydro-2H-pyran-4-yl)acetyl)-5,6-dihydro-2H-pyran-2-one] | 1.4 to 2.7 µM | 0.5 to 1 µg/mL | – | – |
| CCCCCCCCC1CC(O)=C(C(C)=O)C(=O)O1 (stereo not drawn) [Ex. 7, 3-acetyl-4-hydroxy-6-octyl-5,6-dihydro-2H-pyran-2-one] | 9.3 µM | 2.5 µg/mL | 65 µM | – |
| CCCCCCCCCC1CC(O)=C(C(C)=O)C(=O)O1 (stereo not drawn) [Ex. 9, 3-acetyl-4-hydroxy-6-nonyl-5,6-dihydro-2H-pyran-2-one] | 2.1 to 4.3 µM | 1.5 to 2.5 µg/mL | 71 µM | MIC [1, 6]: 1.5 to 2.5 µg/mL; MIC (A. baumannii): > 64 µg/mL |
| N#CCCCCCCCC1CC(O)=C(C(=O)CC2CCCCC2)C(=O)O1 (stereo not drawn) [Ex. 28, 8-(5-(2-cyclohexylacetyl)-4-hydroxy-6-oxo-3,6-dihydro-2H-pyran-2-yl)octanenitrile] | > 55 µM | > 20 µg/mL | – | – |
| CCCC(=O)C1=C(O)CC(CCCCCCCC#N)OC1=O (stereo not drawn) [Ex. 19, 8-(5-butyryl-4-hydroxy-6-oxo-3,6-dihydro-2H-pyran-2-yl)octanenitrile] | 133 to 166 µM | 40 to 50 µg/mL | – | CC50 at 48 h (in vitro): > 100 µM |
| CCCCCCCCC[C@H]1CC(O)=C(C(=O)CCC)C(=O)O1 [Ex. 2B, (S)-3-butyryl-4-hydroxy-6-nonyl-5,6-dihydro-2H-pyran-2-one] | 1.3 to 1.9 µM | 0.4 to 0.6 µg/mL | – | CC50 at 48 h (in vitro): 25 µM |
| CCCCCCCCCCC1CC(O)=C(C(=O)CCC)C(=O)O1 (stereo not drawn) [Ex. 12, 3-butyryl-6-decyl-4-hydroxy-5,6-dihydro-2H-pyran-2-one] | 1.9 to 2.6 µM | 0.6 to 0.8 µg/mL | 25 µM | MIC [1, 6]: 0.6 to 0.8 µg/mL; MIC (A. baumannii): 8 to 16 µg/mL (≈ 24.7 to 49.3 µM) |
| CCCC(=O)C1=C(O)CC(CC(C)CCC=C(C)C)OC1=O (stereo not drawn) [Ex. 21, 3-butyryl-6-(2,6-dimethylhept-5-enyl)-4-hydroxy-5,6-dihydro-2H-pyran-2-one] | 6.5 to 9.7 µM | 2 to 3 µg/mL | – | – |
| CCCCCCCCCC1CC(O)=C(C(=O)CC(C)C)C(=O)O1 (stereo not drawn) [Ex. 15, 4-hydroxy-3-(3-methylbutanoyl)-6-nonyl-5,6-dihydro-2H-pyran-2-one] | 0.6 to 1.2 µM | 0.2 to 0.4 µg/mL | 21 µM | – |
| CCCCCCCCCC1CC(O)=C(C(=O)CC)C(=O)O1 (stereo not drawn) [Ex. 5, 4-hydroxy-6-nonyl-3-propionyl-5,6-dihydro-2H-pyran-2-one] | 2.2 µM | 0.65 µg/mL | 50 µM | MIC [1, 6]: 0.7 µg/mL; MIC ([1]; LMG15975, Table 4, read-out: MIC (μg/ml) S. aureus): 0.7 µg/mL; MIC (A. baumannii): 32 to 48 µg/mL (≈ 108 to 162 µM); MIC (Bacillus cereus): ≤ 1 µg/mL |
| COCCCCCCC1CC(O)=C(C(=O)CC2CC2)C(=O)O1 (stereo not drawn) [Ex. 25, 3-(2-cyclopropylacetyl)-4-hydroxy-6-(6-methoxyhexyl)-5,6-dihydro-2H-pyran-2-one] | > 64 µM | > 20 µg/mL | – | – |
| C/C(=C\C(=O)OCCCCCCCCC(=O)O)C[C@@H]1OC[C@H](C[C@@H]2O[C@H]2[C@@H](C)[C@H](C)O)[C@@H](O)[C@H]1O [mupirocin, reference compound] | – | – | – | MIC [3]: > 256 µg/mL |
| CCCCCCCCCC1CC(O)=C(C(=O)CCOC)C(=O)O1 (stereo not drawn) [Ex. 24, 4-hydroxy-3-(3-methoxypropanoyl)-6-nonyl-5,6-dihydro-2H-pyran-2-one] | 6.1 to 15 µM | 2 to 5 µg/mL | – | – |

Further lines, with some results ahead:

| MIC [1, 4] | MIC [1, 5] | Compound | CC50 at 48 h [2] | other results |
| --- | --- | --- | --- | --- |
| 1.8 to 2.4 µM | 0.6 to 0.8 µg/mL | CCCCCCCCCC1CC(O)=C(C(=O)CCCCC)C(=O)O1 (stereo not drawn) [Ex. 18, 3-hexanoyl-4-hydroxy-6-nonyl-5,6-dihydro-2H-pyran-2-one] | 15 µM | MIC [1, 6]: 0.6 to 0.8 µg/mL; MIC (A. baumannii): 4 to 8 µg/mL (≈ 11.8 to 23.6 µM) |
| 1.2 to 1.8 µM | 0.4 to 0.6 µg/mL | CCCCCCCCCCC1CC(O)=C(C(=O)CCCC)C(=O)O1 (stereo not drawn) [Ex. 3, 6-decyl-4-hydroxy-3-pentanoyl-5,6-dihydro-2H-pyran-2-one] | 13 µM | – |
| 22 to 45 µM | 6 to 12 µg/mL | CCCC(=O)C1=C(O)CC(CC2CCCC2)OC1=O (stereo not drawn) [Ex. 22, 3-butyryl-6-(cyclopentylmethyl)-4-hydroxy-5,6-dihydro-2H-pyran-2-one] | – | – |
| 3.2 to 6.4 µM | 1 to 2 µg/mL | CCCCCCCCC[C@@H]1CC(O)=C(C(=O)CCC)C(=O)O1 [Ex. 2A, (R)-3-butyryl-4-hydroxy-6-nonyl-5,6-dihydro-2H-pyran-2-one] | – | CC50 at 48 h (in vitro): 27 µM |
| 2.7 to 4 µM | 0.8 to 1.2 µg/mL | CCCCCCCCCCC1CC(O)=C(C(C)=O)C(=O)O1 (stereo not drawn) [Ex. 11, 3-acetyl-6-decyl-4-hydroxy-5,6-dihydro-2H-pyran-2-one] | 40 µM | – |
| 4.3 µM | 1.2 µg/mL | CCCCCCCCC1CC(O)=C(C(=O)CC)C(=O)O1 (stereo not drawn) [Ex. 6, 4-hydroxy-6-octyl-3-propionyl-5,6-dihydro-2H-pyran-2-one] | 55 µM | – |
| 64 to 96 µM | 20 to 30 µg/mL | CCCC(=O)C1=C(O)CC(CCCCCCCOC)OC1=O (stereo not drawn) [Ex. 20, 3-butyryl-4-hydroxy-6-(7-methoxyheptyl)-5,6-dihydro-2H-pyran-2-one] | 80 µM | – |
| 5.5 to 14 µM | 2 to 5 µg/mL | N#CCCCCCCCC1CC(O)=C(C(=O)CC2CCOCC2)C(=O)O1 (stereo not drawn) [Ex. 27, 8-(4-hydroxy-6-oxo-5-(2-(tetrahydro-2H-pyran-4-yl)acetyl)-3,6-dihydro-2H-pyran-2-yl)octanenitrile] | – | – |
